Results as given in patent US5703085A, “Xanthine derivatives” (Kyowa Hakko Kogyo Co., Ltd., priority 1994, dated 1997).
Like-named read-outs stand apart in the source and are kept apart here.

Columns and labels:
[1] = Effect on clonidine-induced aggressive behavior; type: in vivo, male ddY mice; settings: po, clonidine 20 mg/kg ip; for Number of the Biting Attacks (mean ± S.E.M.), Test Compound-Treated Group: 30 min count
Protocol: Effect on Clonidine-Induced Aggressive Behavior
The enhancement effect of the test compounds on the aggressive behavior induced by intraperitoneal administration of clonidine [Eur. J. Pharmacol., 29, 374 (1968)] was investigated.
The experiment was performed using several groups of male ddY mice weighing 20 to 25 g (Japan SLC), each group consisting of two mice. A test compound was suspended in injectable distilled water (manufactured by Otsuka Pharmaceutical Co., Ltd.) after adding Tween 80. Clonidine hydrochloride (manufactured by Sigma Co.) was dissolved in physiological saline solution (manufactured by Otsuka Pharmaceutical Co., Ltd.). The suspension containing the test compound and the suspension containing no test compound (control) were orally administered to the separate groups of the mice (0.1 ml per 10 g of body weight). Sixty minutes after the oral administration of the test compound, clonidine hydrochloride (20 mg/kg) was intraperitoneally administered. The number of biting attacks during the 30 minutes immediately after the clonidine treatment was counted. The effect of the compounds was evaluated by comparing the number of biting attacks of the test compound-administered groups with that of control groups (significance test: Student' t-test).

[2] = Effect on haloperidol-induced catalepsy; type: in vivo, male ddY mice; settings: 10 mg/kg po; for Total Score (catalepsy): 1 h after compound; for inhibition in vivo at 10 mg/kg: Mus musculus, 1 h, decrease in total score vs control group, read-out: Remission Rate (%)
Protocol: Effect on Haloperidol-Induced Catalepsy
Parkinson's disease is a clinical syndrome caused by degeneration and cell death of nigrostriatal dopaminergic neurons. Administration of haloperidol (dopamine D1 /D2 antagonist) induces catalepsy resulting from the blockade of postsynaptic dopamine D2 receptors.
The experiment was carried out using several groups of 5-week-old male ddY mice (weighing 22 to 24 g, Japan SLC), each group consisting of 5 or 10 mice. Haloperidol (manufactured by Janssen Pharmaceutica) was suspended in 0.3% CMC and imtraperitoneally administered to each mouse at a dose of 1.0 mg/kg. A test compound was suspended in injectable distilled water (manufactured by Otsuka Pharmaceutical Co., Ltd.) after adding Tween 80 [polyoxyethylene (20) sorbitan monooleate]. L-DOPA (manufactured by Kyowa Hakko Kogyo Co., Ltd.) and benserazide hydrochloride (manufactured by Kyowa Hakko Kogyo Co., Ltd.) were suspended in 0.3% CMC. One hour after the intraperitoneal administration of haloperidol, the suspension containing the test compound or the suspension containing no test compound [injectable distilled water (manufactured by Otsuka Pharmaceutical Co., Ltd.) containing Tween 80; control] were orally administered to the separate groups of the mice (0.1 ml per 10 g of body weight). One hour after the administration of the test compound, the forelimbs of each mouse and subsequently the hindlimbs of the same mouse were placed on a 4.5 cm-high, 1.0 cm-wide bar and catalepsy was estimated. All of the test compounds were orally administered at a dose of 10 mg/kg, and L-DOPA (100 mg/kg) and benserazide (25 mg/kg) were intraperitoneally administered together as a control. The catalepsy score and the standard of judgment are shown below. […]
Score Duration of the category
0: forelimbs less than 5 seconds
hindlimbs less than 5 seconds
1: forelimbs from 5 (inclusive)
to 10 (exclusive) seconds
2: forelimbs 10 seconds or more
3: (1) forelimbs from 5 (inclusive)
hindlimbs from 5 (inclusive)
or (2) forelimbs less than 5 seconds
hindlimbs 5 seconds or more
4: (1) forelimbs 10 seconds or more
or (2) forelimbs from 5 (inclusive)
hindlimbs 10 seconds or more
5: forelimbs 10 seconds or more
The effect of the compounds was evaluated by the total of the catalepsy scores of 5 or 10 mice in each group (25 or 50 points at the maximum). The groups wherein the total score was not more than 20 or 40 points were estimated to be effective. The number of the animals showing remission against catalepsy is the number of the mice for which the catalepsy score was not more than 4 points in 5 or 10 mice.

A2 Receptor = target: T1, A2 Receptor (Rattus norvegicus, UniProt P30543); test: Adenosine A2 receptor binding test (inhibition of 3H-CGS 21680 binding); settings: rat corpus striatum, 3H-CGS 21680 4.0 nM
T1 construct: from tissue; host or cells: rat corpus striatum (membrane suspension)
T1 sequence (P30543 whole entry): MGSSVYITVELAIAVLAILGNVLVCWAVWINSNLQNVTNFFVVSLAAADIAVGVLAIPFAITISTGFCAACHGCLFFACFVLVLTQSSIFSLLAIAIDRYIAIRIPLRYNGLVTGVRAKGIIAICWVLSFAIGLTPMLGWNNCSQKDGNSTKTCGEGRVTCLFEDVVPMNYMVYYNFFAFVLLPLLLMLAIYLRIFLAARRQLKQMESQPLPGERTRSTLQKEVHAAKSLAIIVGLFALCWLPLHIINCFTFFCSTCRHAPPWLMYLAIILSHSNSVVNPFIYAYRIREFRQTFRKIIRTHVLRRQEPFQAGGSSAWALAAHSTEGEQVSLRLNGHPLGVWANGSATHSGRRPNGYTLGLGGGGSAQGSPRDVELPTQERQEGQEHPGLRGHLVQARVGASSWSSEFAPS
Protocol: Adenosine Receptor Antagonistic Activity (Adenosine A2 Receptor Binding Test)
The test was conducted according to the method of Bruns et al. [Mol. Pharmacol., 29, 331 (1986)] with slight modification.
Corpus striatum of a rat was suspended in ice-cooled 50 mM Tris (hydroxymethyl) aminomethane hydrochloride (Tris HCl) buffer (pH 7.7) by using Polytron homogenizer (manufactured by Kinematica Co.). The suspension was centrifuged (50,000×g, 10 minutes), and the precipitate was suspended again in the same amount of 50 mM Tris HCl buffer. The suspension was centrifuged under the same conditions, and the final precipitate was suspended in 50 mM Tris HCl buffer [containing 10 mM magnesium chloride and 0.02 unit/mg tissue of adenosine deaminase (manufactured by Sigma Co.)] to give a tissue concentration of 5 mg (wet weight)/ml.
To 1 ml of the tissue suspension thus prepared were added 50 μl of tritium labeled CGS 21680 {^3 H-2-[p-(2-carboxyethyl) phenethylamino]-5'-(N-ethylcarboxamide)-adenosine: 40 Ci/mmol; manufactured by New England Nuclear Co. [J. Pharmacol. Exp. Ther., 251, 888 (1989)]} (final concentration: 4.0 nM) and 50 μl of a test compound. The resulting mixture was allowed to stand at 25° C. for 120 minutes and then rapidly filtered by suction through a glass fiber filter (GF/C; manufactured by Whatman Co.). The filter was immediately washed three times with 5 ml each of ice-cooled 50 mM Tris HCl buffer, and transferred to a vial, and a scintillator (EX-H; manufactured by Wako Pure Chemical Industries, Ltd.) was added thereto. The radioactivity on the filter was determined with a liquid scintillation counter (manufactured by Packard Instrument Co.).
The inhibition rate of the test compound against the binding of A2 receptors (^3 H-CGS 21680 binding) was calculated by the following equation: [formula] [Notes]B: Amount of the binding in the presence of the test compound.
T: Amount of the total binding.
N: Amount of the nonspecific binding.
Amount of the total binding means the amount of radioactivity of ^3 H-CGS 21680 bound in the absence of the test compound. Amount of the nonspecific binding means the amount of radioactivity of ^3 H-CGS 21680 bound in the presence of 100 μM cyclopentyladenosine (CPA; manufactured by Sigma Co.). Amount of the binding in the presence of the test compound means the amount of radioactivity of ^3 H-CGS 21680 bound in the presence of the test compound at various levels of concentrations.

[3] = 5 mice (max 25 points; control 25)
[4] = out of 5 mice (score not more than 4)
[5] = out of 10 mice (score not more than 4)

SMILES | Ratio of Attacks: Test Compd.-Treated Group/Control Group ([1]; 10 mg/kg) | Number of the Biting Attacks (mean ± S.E.M.), Test Compound-Treated Group ([1]; 10 mg/kg) | Total Score (catalepsy) [2, 3] | Number of Animals Showing Remission [2, 4] | inhibition in vivo at 10 mg/kg ([2]; 5 mice) [%] | A2 Receptor Inhibition Rate (%) (A2 Receptor; 10^-6 M) | A2 Receptor Inhibition Rate (%) (A2 Receptor; 10^-7 M) | Ratio of Attacks: Test Compd.-Treated Group/Control Group ([1]; 2.5 mg/kg) | Number of the Biting Attacks (mean ± S.E.M.), Test Compound-Treated Group ([1]; 2.5 mg/kg) | Ratio of Attacks: Test Compd.-Treated Group/Control Group ([1]; 0.63 mg/kg) | Number of the Biting Attacks (mean ± S.E.M.), Test Compound-Treated Group ([1]; 0.63 mg/kg) | Total Score (catalepsy) ([2]; 10 mice (max 50 points)) | Number of Animals Showing Remission [2, 5] | inhibition in vivo at 10 mg/kg ([2]; 10 mice) [%]
CCCn1c(=O)c2c(nc(/C=C/c3ccc(OC(=O)c4ccccc4)c(OC)c3)n2C)n(CCC)c1=O [Compound 6, (E)-8-(4-Benzoyloxy-3-methoxystyryl)-7-methyl-1,3-dipropylxanthine] | 16.0 | 36.8 ± 10.8 | 9 | 5 | 64 | 96 | 81 | – | – | – | – | – | – | –
CCCn1c(=O)c2c(nc(/C=C/c3ccc(OC(C)=O)c(OC)c3)n2C)n(CCC)c1=O [Compound 4, (E)-8-(4-Acetoxy-3-methoxystyryl)-7-methyl-1,3-dipropylxanthine] | – | – | 3 | 5 | 88 | 98 | 94 | 11.0 | 47.4 ± 11.1 | – | – | – | – | –
CCn1c(=O)c2c(nc(/C=C/c3ccc(OC(C)=O)cc3)n2C)n(CC)c1=O [Compound 14, (E)-8-(4-Acetoxystyryl)-1,3-diethyl-7-methylxanthine] | – | – | – | – | – | 93 | 86 | – | – | 4.1 | 21.4 ± 7.4 | 11 | 10 | 78
CCC(=O)Oc1ccc(/C=C/c2nc3c(c(=O)n(CC)c(=O)n3CC)n2C)cc1OC [Compound 12, (E)-1,3-Diethyl-8-(3-methoxy-4-propionyloxystyryl)-7-methylxanthine] | – | – | – | – | – | 96 | 86 | 20.3 | 38.5 ± 8.4 | – | – | 10 | 10 | 80
